# Where “and” joins values, the source holds several entries; their conditions need not be identical. Equal values may be shown once.
# Test system: HCT116 cells
# Assay: HCT116 cytotoxicity (WST-1 assay) with and without UVA radiation
# Assay type: cell-based, Human
# Conditions: for potentiation of UVA-induced cytotoxicity: UV 5 mJ/cm^2 and 125 mJ/cm^2; for WST-1 raw signal (Figure 5b) / WST-1 raw signal (Figure 5e) / WST-1 raw signal (Figure 5d): replicates
# Experimental: Fig. 5 Comparison of G4 ligand photosensitization. […] Vertical axis, fractional survival, horizontal axis log10 drug concentration (M) (f) Representative images of CPD immunofluorescent staining under UV and drug treatment conditions for U2OS cells, quantified from biological duplicates in (g) (h) Scale bar = 100um. U2OS cells were treated with drug or vehicle control, then immediately irradiated with UVA 125 mJ/cm^2; and fixed 1 h later for immunofluorescence staining with CPD antibody. g Distribution of mean intensity of CPD level per cell (total n = in labels), with two biological repeats per condition. Vertical axis, mean CPD intensity per cell, horizontal axis, conditions (h) WT or KO XPA HAP1 cells assayed for cytotoxicity. Vertical axis, fractional survival (WST-1 assay). The horizontal axis, log10 drug concentration (M). Error bars = standard deviation of the mean. Three biological repeats per condition.
# Human epidermal keratinocytes (HEKa) cells were sourced from Thermo Fisher Scientific, and were grown in EpiLife™ Medium with HKGS. HAP WT and XPA knockout cell lines (Horizon Discovery) were cultured in IMDM, 10% FCS. Human HCT116 cells, U2OS cells (ATCC) were grown in McCoy’s 5 A medium with 10% FBS and L-glutamine. All cell lines are mycoplasma free and have been authenticated by STR or SNP profiling. CX-5461 was provided by Senhwa Biosciences, Inc. PDS is from Sigma-Aldrich, BRACO-19 from Alfa Chemistry, PhENDC3 is from Sigma-Aldrich, γ -H2AX antibody from Abcam (1:1000 for IF) and CPD antibody (1:1500) from Cosmo Bio Ltd. (Catalog number: CAC-NM-DAD-001). The WST-1 assay was performed as previously described, γ H2AX foci staining was performed as previously described. Immunofluorescence staining of CPD was performed according to the protocol from the manufacturer (Cosmo Bio Ltd).
smiles,measurement,setting,value
"CN1CCC[C@H]1CCNC(=O)c1cn2c3c(c(N4CCC(c5cnccn5)C4)c(F)cc3c1=O)Oc1cc3ccccc3cc1-2 (stereo partly shown) [CX-3543, quarfloxin]",potentiation of UVA-induced cytotoxicity,,Strong potentiation
same,WST-1 raw signal (Figure 5b),"conc 1.00E-07, 5mJ/cm2 UV",0.1176 and 0.1409 and 0.1492
same,WST-1 raw signal (Figure 5b),"conc 1.00E-07, 125mJ/cm2 UV",0.1326 and 0.1388 and 0.1325
same,WST-1 raw signal (Figure 5b),"conc 1.00E-07, no UV",0.3065 and 0.2985 and 0.3333
same,WST-1 raw signal (Figure 5b),"conc 1.25E-08, 5mJ/cm2 UV",0.2437 and 0.3248 and 0.2269
same,WST-1 raw signal (Figure 5b),"conc 1.25E-08, 125mJ/cm2 UV",0.1256 and 0.1309 and 0.1293
same,WST-1 raw signal (Figure 5b),"conc 1.25E-08, no UV",0.9466 and 1.0534 and 1.1298
same,WST-1 raw signal (Figure 5b),"conc 1.56E-09, 5mJ/cm2 UV",0.8994 and 0.9603 and 1.0971
same,WST-1 raw signal (Figure 5b),"conc 1.56E-09, 125mJ/cm2 UV",0.4201 and 0.4656 and 0.3751
same,WST-1 raw signal (Figure 5b),"conc 1.56E-09, no UV",1.1359 and 1.1204 and 1.1484
same,WST-1 raw signal (Figure 5b),"conc 2.00E-07, 5mJ/cm2 UV",0.1365 and 0.1282 and 0.1322
same,WST-1 raw signal (Figure 5b),"conc 2.00E-07, 125mJ/cm2 UV",0.1395 and 0.1322 and 0.1311
same,WST-1 raw signal (Figure 5b),"conc 2.00E-07, no UV",0.2081 and 0.2189 and 0.1938
same,WST-1 raw signal (Figure 5b),"conc 2.50E-08, 5mJ/cm2 UV",0.2095 and 0.1617 and 0.1535
same,WST-1 raw signal (Figure 5b),"conc 2.50E-08, 125mJ/cm2 UV",0.1433 and 0.1378 and 0.1358
same,WST-1 raw signal (Figure 5b),"conc 2.50E-08, no UV",0.8495 and 0.8987 and 0.779
same,WST-1 raw signal (Figure 5b),"conc 3.13E-09, 5mJ/cm2 UV",0.6485 and 0.7419 and 0.9883
same,WST-1 raw signal (Figure 5b),"conc 3.13E-09, 125mJ/cm2 UV",0.2369 and 0.2535 and 0.2676
same,WST-1 raw signal (Figure 5b),"conc 3.13E-09, no UV",1.0174 and 1.1372 and 1.1113
same,WST-1 raw signal (Figure 5b),"conc 3.91E-10, 5mJ/cm2 UV",1.0118 and 0.9721 and 1.5038
same,WST-1 raw signal (Figure 5b),"conc 3.91E-10, 125mJ/cm2 UV",0.8661 and 1.1363 and 0.97
same,WST-1 raw signal (Figure 5b),"conc 3.91E-10, no UV",1.0197 and 1.049 and 1.1065
same,WST-1 raw signal (Figure 5b),"conc 5.00E-08, 5mJ/cm2 UV",0.1533 and 0.1449 and 0.1376
same,WST-1 raw signal (Figure 5b),"conc 5.00E-08, 125mJ/cm2 UV",0.1545 and 0.1405 and 0.1347
same,WST-1 raw signal (Figure 5b),"conc 5.00E-08, no UV",0.5561 and 0.5613 and 0.5776
same,WST-1 raw signal (Figure 5b),"conc 6.25E-09, 5mJ/cm2 UV",0.5204 and 0.5393 and 0.4087
same,WST-1 raw signal (Figure 5b),"conc 6.25E-09, 125mJ/cm2 UV",0.1582 and 0.1598 and 0.1609
same,WST-1 raw signal (Figure 5b),"conc 6.25E-09, no UV",1.0374 and 1.1818 and 1.0522
same,WST-1 raw signal (Figure 5b),"conc 7.81E-10, 5mJ/cm2 UV",0.7587 and 1.1105 and 1.4362
same,WST-1 raw signal (Figure 5b),"conc 7.81E-10, 125mJ/cm2 UV",0.5029 and 0.7057 and 0.876
same,WST-1 raw signal (Figure 5b),"conc 7.81E-10, no UV",1.0762 and 1.1392 and 1.1311
C[n+]1cc(NC(=O)c2ccc3ccc4ccc(C(=O)Nc5cc6ccccc6[n+](C)c5)nc4c3n2)cc2ccccc21 [PhenDC3],potentiation of UVA-induced cytotoxicity,,not
same,WST-1 raw signal (Figure 5e),"conc 1.47e-6, 5mJ/cm2 UV",2.5247 and 1.9665 and 1.5331
same,WST-1 raw signal (Figure 5e),"conc 1.47e-6, 125mJ/cm2 UV",2.2675 and 1.9844 and 1.1454
same,WST-1 raw signal (Figure 5e),"conc 1.47e-6, no UV",1.3654 and 1.4935 and 1.7286
same,WST-1 raw signal (Figure 5e),"conc 2.94e-6, 5mJ/cm2 UV",2.08 and 2.2029 and 1.6368
same,WST-1 raw signal (Figure 5e),"conc 2.94e-6, 125mJ/cm2 UV",2.4823 and 2.523 and 1.7852
same,WST-1 raw signal (Figure 5e),"conc 2.94e-6, no UV",1.5405 and 2.117 and 2.002
same,WST-1 raw signal (Figure 5e),"conc 5.88e-6, 5mJ/cm2 UV",2.4037 and 2.2391 and 1.6885
same,WST-1 raw signal (Figure 5e),"conc 5.88e-6, 125mJ/cm2 UV",2.7023 and 2.4336 and 1.5283
same,WST-1 raw signal (Figure 5e),"conc 5.88e-6, no UV",1.7 and 1.9567 and 2.1724
same,WST-1 raw signal (Figure 5e),"conc 1.18e-5, 5mJ/cm2 UV",2.1812 and 1.9738 and 1.7421
same,WST-1 raw signal (Figure 5e),"conc 1.18e-5, 125mJ/cm2 UV",2.7227 and 2.5018 and 2.3037
same,WST-1 raw signal (Figure 5e),"conc 1.18e-5, no UV",1.7648 and 1.8678 and 1.9824
same,WST-1 raw signal (Figure 5e),"conc 2.35e-5, 5mJ/cm2 UV",0.565 and 0.559 and 0.471
same,WST-1 raw signal (Figure 5e),"conc 2.35e-5, 125mJ/cm2 UV",0.7287 and 0.5914 and 0.574
same,WST-1 raw signal (Figure 5e),"conc 2.35e-5, no UV",0.8347 and 0.741 and 0.6679
same,WST-1 raw signal (Figure 5e),"conc 4.7e-5, 5mJ/cm2 UV",0.2348 and 0.2033 and 0.2076
same,WST-1 raw signal (Figure 5e),"conc 4.7e-5, 125mJ/cm2 UV",0.1706 and 0.1911 and 0.2089
same,WST-1 raw signal (Figure 5e),"conc 4.7e-5, no UV",0.2669 and 0.2647 and 0.2402
same,WST-1 raw signal (Figure 5e),"conc 9.4e-5, 5mJ/cm2 UV",0.1394 and 0.1367 and 0.1266
same,WST-1 raw signal (Figure 5e),"conc 9.4e-5, 125mJ/cm2 UV",0.1442 and 0.1281 and 0.1307
same,WST-1 raw signal (Figure 5e),"conc 9.4e-5, no UV",0.1612 and 0.1272 and 0.1365
same,WST-1 raw signal (Figure 5e),"conc 1.84E-07, 5mJ/cm2 UV",1.7037 and 1.2125 and 1.5201
same,WST-1 raw signal (Figure 5e),"conc 1.84E-07, 125mJ/cm2 UV",1.8011 and 1.8559 and 1.4258
same,WST-1 raw signal (Figure 5e),"conc 1.84E-07, no UV",1.321 and 1.2585 and 1.2601
same,WST-1 raw signal (Figure 5e),"conc 3.67E-07, 5mJ/cm2 UV",1.8869 and 1.5993 and 1.6043
same,WST-1 raw signal (Figure 5e),"conc 3.67E-07, 125mJ/cm2 UV",2.4917 and 1.8093 and 1.3054
same,WST-1 raw signal (Figure 5e),"conc 3.67E-07, no UV",1.2806 and 1.3851 and 1.3161
same,WST-1 raw signal (Figure 5e),"conc 7.34E-07, 5mJ/cm2 UV",1.9796 and 1.8361 and 1.8217
same,WST-1 raw signal (Figure 5e),"conc 7.34E-07, 125mJ/cm2 UV",2.3975 and 1.9653 and 1.3571
same,WST-1 raw signal (Figure 5e),"conc 7.34E-07, no UV",1.5573 and 1.2554 and 1.5011
CN(C)c1ccc(Nc2c3ccc(NC(=O)CCN4CCCC4)cc3nc3cc(NC(=O)CCN4CCCC4)ccc23)cc1 [BRACO-19],potentiation of UVA-induced cytotoxicity,,not
same,WST-1 raw signal (Figure 5d),"conc 1.31e-6, 5mJ/cm2 UV",2.4666 and 1.6857
same,WST-1 raw signal (Figure 5d),"conc 1.31e-6, 125mJ/cm2 UV",1.7146 and 2.5235
same,WST-1 raw signal (Figure 5d),"conc 1.31e-6, no UV",1.0028 and 1.1127 and 1.1944
same,WST-1 raw signal (Figure 5d),"conc 2.63e-6, 5mJ/cm2 UV",1.5923 and 2.1232
same,WST-1 raw signal (Figure 5d),"conc 2.63e-6, 125mJ/cm2 UV",1.7241 and 1.9009
same,WST-1 raw signal (Figure 5d),"conc 2.63e-6, no UV",1.0332 and 1.1578 and 1.2506
same,WST-1 raw signal (Figure 5d),"conc 5.25e-6, 5mJ/cm2 UV",2.5376 and 1.7122
same,WST-1 raw signal (Figure 5d),"conc 5.25e-6, 125mJ/cm2 UV",1.8158 and 1.6795
same,WST-1 raw signal (Figure 5d),"conc 5.25e-6, no UV",0.8877 and 1.1208 and 1.1731
same,WST-1 raw signal (Figure 5d),"conc 1.05e-5, 5mJ/cm2 UV",2.0499 and 1.7849
same,WST-1 raw signal (Figure 5d),"conc 1.05e-5, 125mJ/cm2 UV",1.734 and 1.5629
same,WST-1 raw signal (Figure 5d),"conc 1.05e-5, no UV",0.9118 and 1.1353 and 1.1139
same,WST-1 raw signal (Figure 5d),"conc 2.1e-5, 5mJ/cm2 UV",2.2151 and 1.3748
same,WST-1 raw signal (Figure 5d),"conc 2.1e-5, 125mJ/cm2 UV",1.3993 and 1.3857
same,WST-1 raw signal (Figure 5d),"conc 2.1e-5, no UV",0.9051 and 1.0979 and 1.0693
same,WST-1 raw signal (Figure 5d),"conc 4.2e-5, 5mJ/cm2 UV",1.7663 and 1.2587
same,WST-1 raw signal (Figure 5d),"conc 4.2e-5, 125mJ/cm2 UV",1.2502 and 1.0049
same,WST-1 raw signal (Figure 5d),"conc 4.2e-5, no UV",0.8968 and 1.0934 and 1.1351
same,WST-1 raw signal (Figure 5d),"conc 8.4e-5, 5mJ/cm2 UV",0.4969 and 0.3888
same,WST-1 raw signal (Figure 5d),"conc 8.4e-5, 125mJ/cm2 UV",0.4246 and 0.5991
same,WST-1 raw signal (Figure 5d),"conc 8.4e-5, no UV",0.3873 and 0.5407 and 0.5015
same,WST-1 raw signal (Figure 5d),"conc 1.64E-07, 5mJ/cm2 UV",2.3685 and 1.9812
same,WST-1 raw signal (Figure 5d),"conc 1.64E-07, 125mJ/cm2 UV",1.617 and 1.4273
same,WST-1 raw signal (Figure 5d),"conc 1.64E-07, no UV",1.0063 and 1.0872 and 1.153
same,WST-1 raw signal (Figure 5d),"conc 3.28E-07, 5mJ/cm2 UV",1.3974 and 1.689
same,WST-1 raw signal (Figure 5d),"conc 3.28E-07, 125mJ/cm2 UV",1.2981 and 1.6967
same,WST-1 raw signal (Figure 5d),"conc 3.28E-07, no UV",0.8955 and 1.1379 and 1.1636
same,WST-1 raw signal (Figure 5d),"conc 6.56E-07, 5mJ/cm2 UV",2.2078 and 2.2342
same,WST-1 raw signal (Figure 5d),"conc 6.56E-07, 125mJ/cm2 UV",1.8184 and 2.0816
same,WST-1 raw signal (Figure 5d),"conc 6.56E-07, no UV",1.0072 and 1.1785 and 1.064
C[n+]1ccc(-c2c3nc(c(-c4cc[n+](C)cc4)c4ccc([nH]4)c(-c4cc[n+](C)cc4)c4nc(c(-c5cc[n+](C)cc5)c5ccc2[nH]5)C=C4)C=C3)cc1 [TMPYP4],potentiation of UVA-induced cytotoxicity,,not
